Assay [1] relates to HssRS-dependent hrtAB expression. The assay can be described thus: Luminescence-based assay to monitor HssRS-dependent hrtAB expression (phrtABlux reporter), Newman. Type of assay: cell-based, Staphylococcus aureus. To be noted: Newman; for Luminescence: raw luminescence value obtained in a luminometer; for activation at 0.0825 µM: Staphylococcus aureus, NEWMAN, read-out: % Lumi, luminescence induced by the compound compared to the heme control (82.5 nM) in the same plate. The procedure, abridged: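 S. aureus Newman wild type or ΔhssR carrying a hrtAB promoter–luxCDABE reporter (phrtABlux), grown in TSB with 10 μg/ml chloramphenicol at 37 °C. Light output read against 82.5 nM heme as the in-plate positive control. Activity given as % of heme-induced luminescence.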

The test system of assay [2] is hrtAB-driven expression of the xylE reporter gene. The assay can be described thus: XylE reporter assay (hrtAB promoter-xylE), Newman. The class given is cell-based, Staphylococcus aureus. To be noted: for XylE (0.05): level of XylE induction at 0.05 uM of the compound; for XylE (0.5): level of XylE induction at 0.5 uM of the compound; for XylE (5.0): level of XylE induction at 5.0 uM of the compound; for XylE (50.0): level of XylE induction at 50.0 uM of the compound. The method in brief: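 S. aureus carrying hrtAB promoter-xylE fusion in pOS1 grown O/N at 37° C in TSB with chloramphenicol, lysed with lysostaphin. Lysate XylE activity read as 2-hydroxymuconic semialdehyde formation from 0.2 mM pyrocatechol (A375, every minute for 30 minutes), normalised to BCA protein; unit = 1 nmol/min/mg at 30° C.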
On the technique in general: Reporter assays use an easily measured gene product as a stand-in for the process of interest.

On to `NS(=O)(=O)c1ccc(Nc2nc(-c3ccc(Cl)cc3)cs2)cc1`, for which the Luminescence in assay [1] amounted to 4946. Besides, in assay [2], the “XylE (0.05)” value is listed as 0.04, the “XylE (0.5)” value came out at 1, the “XylE (5.0)” value amounted to 1 and the “XylE (50.0)” value was found to be 0.02.

Turning to `Oc1ccc(CCNC2CCCc3c2[nH]c2ccc(-c4ccccc4)cc32)cc1` (stereo not drawn), in assay [1], the activation at 0.0825 µM was 127% and the Luminescence was found to be 534. In assay [2], the “XylE (0.05)” value is on record as 0.06, the “XylE (0.5)” value is on record as 0.02, the “XylE (5.0)” value turned out to be 1 and the “XylE (50.0)” value came to 1.

In turn, `O=c1c2ccccc2nc(/C=C\c2ccccc2F)n1-c1ccccc1F` came in with a Luminescence in assay [1] of 3115. Moreover, in assay [2], the “XylE (0.5)” value came out at 1, the “XylE (5.0)” value is reported as 0 and the “XylE (50.0)” value is 0.

In turn, `Cc1c(-c2ccccc2)nc2ccccc2c1C(=O)Nc1ccccc1C(F)(F)F` showed a Luminescence in assay [1] of 2424. For the same compound, in assay [2], the “XylE (0.05)” value came to 0.5, the “XylE (0.5)” value is given as 0.7, the “XylE (5.0)” value is 0.03 and the “XylE (50.0)” value is 0.02.

Consider `CCCCCCC(=O)NC(NC(=S)Nc1ccccc1O)C(Cl)(Cl)Cl` (stereo not drawn), for which the Luminescence in assay [1] is on record as 2766. Besides, in assay [2], the “XylE (0.05)” value was found to be 0.5, the “XylE (0.5)” value is 0.2, the “XylE (5.0)” value came out at 0.04 and the “XylE (50.0)” value amounted to 0.03.

In assay [1], `Nc1ccccc1C(=O)Nc1nc2ccc(Cl)cc2s1` displayed a Luminescence of 1741. Besides, in assay [2], the “XylE (0.5)” value was 0.01, the “XylE (5.0)” value worked out at 0.03 and the “XylE (50.0)” value worked out at 0.04.

In the case of `O=S(=O)(Nc1cc(Cl)ccc1Cl)c1ccc(Cl)cc1`, in assay [1], the activation at 0.0825 µM is 146% and the Luminescence came to 618. Further, in assay [2], the “XylE (0.05)” value came to 0.02, the “XylE (0.5)” value is 0.07, the “XylE (5.0)” value is 0.5 and the “XylE (50.0)” value was 0.1.

Turning to `COc1ccc(OC(=O)c2ccc(N3C(=O)C4C5CCC(C5)C4C3=O)cc2)cc1` (stereo not drawn), the Luminescence in assay [1] came out at 3096. Further, in assay [2], the “XylE (0.5)” value was 0.09, the “XylE (5.0)” value was 0.03 and the “XylE (50.0)” value is recorded as 0.02.

Take `CSc1ccc(NC=C2C(=O)CC(C)(C)CC2=O)cc1`: in assay [1], the activation at 0.0825 µM turned out to be 161% and the Luminescence was 1347. In assay [2], the “XylE (0.05)” value was 0.04, the “XylE (0.5)” value was 0.05, the “XylE (5.0)” value is recorded as 0.01 and the “XylE (50.0)” value is on record as 1.

In turn, `COc1ccccc1N1C(=O)c2ccc(C(=O)OC(C)C(=O)c3ccc(C)cc3)cc2C1=O` (stereo not drawn) yielded a Luminescence in assay [1] of 3189. Further, in assay [2], the “XylE (0.05)” value is given as 1, the “XylE (0.5)” value came to 0.6, the “XylE (5.0)” value is 0.7 and the “XylE (50.0)” value amounted to 1.

Turning to `Cc1cccc(C(=O)Nc2ccc(-c3nc4ccccc4o3)cc2)c1` [drawing 27], in assay [1], the activation at 0.0825 µM stood at 294% and the Luminescence came to 837. In addition, in assay [2], the “XylE (0.05)” value worked out at 0.07, the “XylE (0.5)” value is given as 0.09, the “XylE (5.0)” value is listed as 0.08 and the “XylE (50.0)” value was determined as 0.2.

On to `O=C(Nc1ccncc1)c1ccc(COc2cc(Cl)ccc2Cl)cc1`, for which, in assay [1], the activation at 0.0825 µM was 597% and the Luminescence worked out at 1845. For the same compound, in assay [2], the “XylE (0.5)” value was found to be 1, the “XylE (5.0)” value was found to be 0.4 and the “XylE (50.0)” value worked out at 1.

On to `O=C(Nc1ccncc1)c1ccc(COc2ccccc2Cl)cc1`, for which, in assay [1], the activation at 0.0825 µM turned out to be 478% and the Luminescence came out at 1589. In assay [2], the “XylE (0.5)” value was determined as 0.09, the “XylE (5.0)” value came to 0 and the “XylE (50.0)” value was 1.

In the case of `CC(/C=N/NC(=O)C1COc2ccccc2O1)=C\c1ccccc1` (stereo not drawn), in assay [1], the activation at 0.0825 µM was found to be 139% and the Luminescence was 507. Further, in assay [2], the “XylE (0.05)” value amounted to 0.07, the “XylE (0.5)” value is on record as 0.04, the “XylE (5.0)” value was 0.2 and the “XylE (50.0)” value stood at 0.05.

Regarding `C/C=C/C=N/Nc1nnc2c(n1)[nH]c1ccccc12`, in assay [1], the activation at 0.0825 µM was 202% and the Luminescence is given as 1696. Further, in assay [2], the “XylE (0.05)” value came to 0.04, the “XylE (0.5)” value is on record as 0.06, the “XylE (5.0)” value was determined as 0.1 and the “XylE (50.0)” value was 1.

In the case of `Cc1ccc(O)c(NC(=O)c2nn3c(c2Br)NC(c2ccco2)CC3C(F)(F)F)c1` (stereo not drawn) [drawing 60], the Luminescence in assay [1] was 1949. Besides, in assay [2], the “XylE (0.05)” value is on record as 0.07, the “XylE (0.5)” value was 0.7, the “XylE (5.0)” value came to 11 and the “XylE (50.0)” value is 1.

With `COC(=O)CCNc1nc(-c2ccc(Br)cc2)nc2ccccc12`, in assay [1], the activation at 0.0825 µM is 484% and the Luminescence is 1714. Also, in assay [2], the “XylE (0.5)” value is 0.03, the “XylE (5.0)” value is on record as 0.02 and the “XylE (50.0)” value was determined as 0.8.

For the compound `O=C(NC(=S)Nc1ccc(-c2nc3ccccc3s2)cc1)c1ccccc1[N+](=O)[O-]` [drawing 23], in assay [1], the activation at 0.0825 µM turned out to be 374% and the Luminescence was determined as 1794. Besides, in assay [2], the “XylE (0.05)” value was 0.09, the “XylE (0.5)” value is reported as 0.07, the “XylE (5.0)” value is recorded as 0.08 and the “XylE (50.0)” value is listed as 0.2.

Regarding `COc1ccc(CN2CCCN(C)CC2)c(C)c1C`, in assay [1], the activation at 0.0825 µM is 127% and the Luminescence worked out at 534. Besides, in assay [2], the “XylE (0.05)” value amounted to 0, the “XylE (0.5)” value is 0, the “XylE (5.0)” value is given as 1 and the “XylE (50.0)” value is recorded as 1.

`O=C(Nc1ccccc1C(=O)Nc1ccc(Cl)cc1)c1ccccc1`: in assay [1], the activation at 0.0825 µM came out at 92% and the Luminescence was determined as 309. In addition, in assay [2], the “XylE (0.05)” value came out at 0.05, the “XylE (0.5)” value came out at 0.08, the “XylE (5.0)” value is recorded as 0.08 and the “XylE (50.0)” value was found to be 0.06.

Take `COc1cccc(-c2cc(C(=O)Nc3ccccc3C(F)(F)F)c3ccccc3n2)c1`: in assay [1], the activation at 0.0825 µM was 450% and the Luminescence was 1642. Also, in assay [2], the “XylE (0.5)” value is recorded as 0, the “XylE (5.0)” value was determined as 0.05 and the “XylE (50.0)” value was found to be 0.09.

On to `COc1ccc(Cl)cc1NC(=O)Nc1ccc(Cl)cc1`, for which, in assay [1], the activation at 0.0825 µM worked out at 180% and the Luminescence was 586. In assay [2], the “XylE (0.05)” value is given as 1, the “XylE (0.5)” value was determined as 0.03, the “XylE (5.0)” value is given as 0 and the “XylE (50.0)” value was determined as 0.03.

Consider `O=C(Nc1ccccc1O)c1cccc(N2C(=O)c3ccc([N+](=O)[O-])cc3C2=O)c1`, for which, in assay [1], the activation at 0.0825 µM came to 675% and the Luminescence is 1850. Further, in assay [2], the “XylE (0.5)” value was determined as 0.02, the “XylE (5.0)” value is 0 and the “XylE (50.0)” value came to 0.03.

`CCC(C)NC(=O)c1sc2nc(C)nc(N3CCCCC3)c2c1C` (stereo not drawn) showed a Luminescence in assay [1] of 2301. In assay [2], the “XylE (0.05)” value is recorded as 1, the “XylE (0.5)” value is reported as 1, the “XylE (5.0)” value turned out to be 1 and the “XylE (50.0)” value is 7.

Turning to `O=C1c2ccccc2C(=O)C1C1=NNC(c2ccccc2)C1` (stereo not drawn), in assay [1], the activation at 0.0825 µM amounted to 81.7% and the Luminescence was 2680. For the same compound, in assay [2], the “XylE (0.05)” value was 0.05, the “XylE (0.5)” value was found to be 0.06, the “XylE (5.0)” value stood at 0.1 and the “XylE (50.0)” value is recorded as 0.8.

On to `O=C(NC(=S)Nc1ccc(-c2nc3ccccc3s2)cc1)c1ccccc1[N+](=O)[O-]` [drawing 61], for which the Luminescence in assay [1] was 1794. Moreover, in assay [2], the “XylE (0.05)” value came to 0.1, the “XylE (0.5)” value turned out to be 0.7, the “XylE (5.0)” value is on record as 0.8 and the “XylE (50.0)” value is 0.8.

The record behind these values is patent publication US8263642B2, “Antimicrobial compounds and methods of use thereof” (Vanderbilt University, priority 2008, dated 2012).
